Source: patent US20120029187A1, “HALOALKYLSULFONANILIDE DERIVATIVE” (Nissan Chemical Industries, Ltd., priority 2009, published 2012)

Experiments:
Type in all cases: in vivo
ducksalad [1] = assay: Test Example 1: herbicidal effects in preemergence treatment under submerged conditions; conditions: dose 2.52 g/a
Outline: (§1)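 Alluvial soil flooded to 4 cm depth; barnyardgrass, bulrush and ducksalad sown and 2.5-leaf rice seedlings transplanted. Same day, water-diluted emulsifiable concentrates applied to the water surface at set doses (g/a). Kept at 25–30 °C in greenhouse; effects scored 0–5 by mortality after three weeks.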

bulrush [2] = assay: as above; conditions: dose 2.52 g/a
Outline: as §1

barnyardgrass [3] = assay: as above; conditions: dose 2.52 g/a
Outline: as §1

water foxtail [4] = assay: Test Example 4: herbicidal effect in foliage treatment; conditions: dose 6.3 g/a, three weeks after application
Outline: (§2)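 Doses are given in grams per are of applied compound, sprayed as water-diluted emulsifiable concentrate onto foliage of 14-day-old plants grown at 25 to 30° C. Herbicidal activity was assessed visually on a rating scale after three weeks.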

Italian ryegrass [5] = assay: as above; conditions: dose 6.3 g/a, three weeks after application
Outline: as §2

common chickweed [6] = assay: as above; conditions: dose 6.3 g/a, three weeks after application
Outline: as §2

posumbu knotweed [7] = assay: as above; conditions: dose 6.3 g/a, three weeks after application
Outline: as §2

wild oat [8] = assay: as above; conditions: dose 6.3 g/a, three weeks after application
Outline: as §2

redroot pigweed [9] = assay: as above; conditions: dose 6.3 g/a, three weeks after application
Outline: as §2

giant foxtail [10] = assay: as above; conditions: dose 6.3 g/a, three weeks after application
Outline: as §2

barnyardgrass [11] = assay: as above; conditions: dose 6.3 g/a, three weeks after application
Outline: as §2

common ragweed [12] = assay: as above; conditions: dose 6.3 g/a, three weeks after application
Outline: as §2

large crabgrass [13] = assay: as above; conditions: dose 6.3 g/a, three weeks after application
Outline: as §2

velvetleaf [14] = assay: as above; conditions: dose 6.3 g/a, three weeks after application
Outline: as §2

common lambsquater [15] = assay: as above; conditions: dose 6.3 g/a, three weeks after application
Outline: as §2

beadstraw = assay: as above; conditions: dose 6.3 g/a, three weeks after application
Outline: as §2

transplanted rice = assay: Test Example 1: preemergence treatment under submerged conditions, effect on crop; conditions: dose 2.52 g/a
Outline: as §1

ducksalad [16] = assay: Test Example 2: herbicidal effects during the vegetation period under submerged conditions; conditions: treatment during the vegetation period under submerged conditions; dose 2.52 g/a
Outline: (§3)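 Barnyardgrass, bulrush and ducksalad were co-sown in alluvial soil flooded to 4 cm and grown in a greenhouse at 25 to 30° C. At the 1- or 2-leaf stage, water-diluted emulsifiable concentrates went onto the water surface at set doses (g/a). Herbicidal effect was scored three weeks later on a graded scale.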

bulrush [17] = assay: as above; conditions: treatment during the vegetation period under submerged conditions; dose 2.52 g/a
Outline: as §3

barnyardgrass [18] = assay: as above; conditions: treatment during the vegetation period under submerged conditions; dose 2.52 g/a
Outline: as §3

water foxtail [19] = assay: Test Example 3: herbicidal effects in soil treatment; conditions: dose 6.3 g/a
Outline: (§4)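 Seeds were sown in sterilized diluvial soil and covered with about 1.5 cm of soil. Compounds, formulated as emulsifiable concentrates and diluted with water, were sprayed evenly over the soil surface at set doses in g/a. Herbicidal effect was scored on a rating scale three weeks later.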

Italian ryegrass [20] = assay: as above; conditions: dose 6.3 g/a
Outline: as §4

common chickweed [21] = assay: as above; conditions: dose 6.3 g/a
Outline: as §4

posumbu knotweed [22] = assay: as above; conditions: dose 6.3 g/a
Outline: as §4

wild oat [23] = assay: as above; conditions: dose 6.3 g/a
Outline: as §4

redroot pigweed [24] = assay: as above; conditions: dose 6.3 g/a
Outline: as §4

giant foxtail [25] = assay: as above; conditions: dose 6.3 g/a
Outline: as §4

barnyardgrass [26] = assay: as above; conditions: dose 6.3 g/a
Outline: as §4

common ragweed [27] = assay: as above; conditions: dose 6.3 g/a
Outline: as §4

large crabgrass [28] = assay: as above; conditions: dose 6.3 g/a
Outline: as §4

velvetleaf [29] = assay: as above; conditions: dose 6.3 g/a
Outline: as §4

common lambsquater [30] = assay: as above; conditions: dose 6.3 g/a
Outline: as §4

| SMILES | C: ducksalad, herbicidal effect (evaluation scale 0-5) (ducksalad [1]) | B: bulrush, herbicidal effect (evaluation scale 0-5) (bulrush [2]) | A: barnyardgrass, herbicidal effect (evaluation scale 0-5) (barnyardgrass [3]) | G: water foxtail, herbicidal effect (water foxtail [4]) | H: Italian ryegrass, herbicidal effect (Italian ryegrass [5]) | N: common chickweed, herbicidal effect (common chickweed [6]) | M: posumbu knotweed, herbicidal effect (posumbu knotweed [7]) | F: wild oat, herbicidal effect (wild oat [8]) | K: redroot pigweed, herbicidal effect (redroot pigweed [9]) | E: giant foxtail, herbicidal effect (giant foxtail [10]) | A: barnyardgrass, herbicidal effect (barnyardgrass [11]) | J: common ragweed, herbicidal effect (common ragweed [12]) | D: large crabgrass, herbicidal effect (large crabgrass [13]) | I: velvetleaf, herbicidal effect (velvetleaf [14]) | L: common lambsquater, herbicidal effect (common lambsquater [15]) | O: beadstraw, herbicidal effect (beadstraw) | a: transplanted rice, effect on crop (evaluation scale 0-5) (transplanted rice) | C: ducksalad, herbicidal effect (evaluation scale 0-5) (ducksalad [16]) | B: bulrush, herbicidal effect (evaluation scale 0-5) (bulrush [17]) | A: barnyardgrass, herbicidal effect (evaluation scale 0-5) (barnyardgrass [18]) | further results |
| --- | --- | --- | --- | --- | --- | --- | --- | --- | --- | --- | --- | --- | --- | --- | --- | --- | --- | --- | --- | --- | --- |
| CCOC(=O)N(c1ccccc1CN1CCOC(C)C1=O)S(=O)(=O)C(F)(F)F (stereo not shown) [Compound I-5, 2-methyl-4-[2-(N-ethoxycarbonyl-N-trifluoromethanesulfonyl)aminobenzyl]-1,4-oxazinan-3-one] | 5 (mortality of 90% or above (nearly complete death)) | 5 (mortality of 90% or above (nearly complete death)) | 5 (mortality of 90% or above (nearly complete death)) | 5 (mortality of 90% or above (nearly complete death)) | 4 (mortality of at least 70% and less than 90%) | 4 (mortality of at least 70% and less than 90%) | 4 (mortality of at least 70% and less than 90%) | 2 (mortality of at least 20% and less than 40%) | 3 (mortality of at least 40% and less than 70%) | 4 (mortality of at least 70% and less than 90%) | 5 (mortality of 90% or above (nearly complete death)) | 4 (mortality of at least 70% and less than 90%) | 5 (mortality of 90% or above (nearly complete death)) | 4 (mortality of at least 70% and less than 90%) | 3 (mortality of at least 40% and less than 70%) | 3 (mortality of at least 40% and less than 70%) | 0 (mortality of less than 5% (almost ineffective)) | 5 (mortality of 90% or above (nearly complete death)) | 5 (mortality of 90% or above (nearly complete death)) | 5 (mortality of 90% or above (nearly complete death)) | G: water foxtail, herbicidal effect (evaluation scale 0-5) (water foxtail [19]): 5 (mortality of 90% or above (nearly complete death)); H: Italian ryegrass, herbicidal effect (evaluation scale 0-5) (Italian ryegrass [20]): 1 (mortality of at least 5% and less than 20%); N: common chickweed, herbicidal effect (evaluation scale 0-5) (common chickweed [21]): 5 (mortality of 90% or above (nearly complete death)); M: posumbu knotweed, herbicidal effect (evaluation scale 0-5) (posumbu knotweed [22]): 4 (mortality of at least 70% and less than 90%); F: wild oat, herbicidal effect (evaluation scale 0-5) (wild oat [23]): 3 (mortality of at least 40% and less than 70%); K: redroot pigweed, herbicidal effect (evaluation scale 0-5) (redroot pigweed [24]): 4 (mortality of at least 70% and less than 90%); E: giant foxtail, herbicidal effect (evaluation scale 0-5) (giant foxtail [25]): 5 (mortality of 90% or above (nearly complete death)); A: barnyardgrass, herbicidal effect (evaluation scale 0-5) (barnyardgrass [26]): 5 (mortality of 90% or above (nearly complete death)); J: common ragweed, herbicidal effect (evaluation scale 0-5) (common ragweed [27]): 4 (mortality of at least 70% and less than 90%); D: large crabgrass, herbicidal effect (evaluation scale 0-5) (large crabgrass [28]): 5 (mortality of 90% or above (nearly complete death)); I: velvetleaf, herbicidal effect (evaluation scale 0-5) (velvetleaf [29]): 4 (mortality of at least 70% and less than 90%); L: common lambsquater, herbicidal effect (evaluation scale 0-5) (common lambsquater [30]): 5 (mortality of 90% or above (nearly complete death)) |
| CC(C)COC(=O)N(c1ccccc1CN1CCOCC1=O)S(=O)(=O)C(F)(F)F [Compound I-3] | 5 (mortality of 90% or above (nearly complete death)) | 5 (mortality of 90% or above (nearly complete death)) | 5 (mortality of 90% or above (nearly complete death)) | 5 (mortality of 90% or above (nearly complete death)) | 3 (mortality of at least 40% and less than 70%) | 4 (mortality of at least 70% and less than 90%) | 0 (mortality of less than 5% (almost ineffective)) | 0 (mortality of less than 5% (almost ineffective)) | 2 (mortality of at least 20% and less than 40%) | 4 (mortality of at least 70% and less than 90%) | 5 (mortality of 90% or above (nearly complete death)) | 4 (mortality of at least 70% and less than 90%) | 5 (mortality of 90% or above (nearly complete death)) | 5 (mortality of 90% or above (nearly complete death)) | 4 (mortality of at least 70% and less than 90%) | 4 (mortality of at least 70% and less than 90%) | 0 (mortality of less than 5% (almost ineffective)) | 5 (mortality of 90% or above (nearly complete death)) | 5 (mortality of 90% or above (nearly complete death)) | 5 (mortality of 90% or above (nearly complete death)) | G: water foxtail, herbicidal effect (evaluation scale 0-5) (water foxtail [19]): 5 (mortality of 90% or above (nearly complete death)); H: Italian ryegrass, herbicidal effect (evaluation scale 0-5) (Italian ryegrass [20]): 5 (mortality of 90% or above (nearly complete death)); N: common chickweed, herbicidal effect (evaluation scale 0-5) (common chickweed [21]): 5 (mortality of 90% or above (nearly complete death)); M: posumbu knotweed, herbicidal effect (evaluation scale 0-5) (posumbu knotweed [22]): 3 (mortality of at least 40% and less than 70%); F: wild oat, herbicidal effect (evaluation scale 0-5) (wild oat [23]): 0 (mortality of less than 5% (almost ineffective)); K: redroot pigweed, herbicidal effect (evaluation scale 0-5) (redroot pigweed [24]): 3 (mortality of at least 40% and less than 70%); E: giant foxtail, herbicidal effect (evaluation scale 0-5) (giant foxtail [25]): 5 (mortality of 90% or above (nearly complete death)); A: barnyardgrass, herbicidal effect (evaluation scale 0-5) (barnyardgrass [26]): 5 (mortality of 90% or above (nearly complete death)); J: common ragweed, herbicidal effect (evaluation scale 0-5) (common ragweed [27]): 4 (mortality of at least 70% and less than 90%); D: large crabgrass, herbicidal effect (evaluation scale 0-5) (large crabgrass [28]): 5 (mortality of 90% or above (nearly complete death)); I: velvetleaf, herbicidal effect (evaluation scale 0-5) (velvetleaf [29]): 5 (mortality of 90% or above (nearly complete death)); L: common lambsquater, herbicidal effect (evaluation scale 0-5) (common lambsquater [30]): 5 (mortality of 90% or above (nearly complete death)) |
